Experimental data published in the NIST ThermoML archive (doi:10.1016/j.fluid.2006.05.007).

Assay: xn = mol fraction of the nth substance listed
Conditions: Fluid (supercritical or subcritical phases)

CO [methanol] + O
Conditions | mass density [kg/m3]
572.91 K, 10085 kPa, x1 = 0.3044 | 77.4
573.08 K, 10068 kPa, x1 = 0.4031 | 79.4
573.15 K, 10080 kPa, x1 = 0.5144 | 83.3
573.26 K, 10081 kPa, x1 = 0.59 | 85.5
573.31 K, 10076 kPa, x1 = 0.7905 | 92.4
573.34 K, 10081 kPa, x1 = 0.8802 | 94.8
573.35 K, 10077 kPa, x1 = 0.6896 | 87.7
573.43 K, 10083 kPa, x1 = 0.0997 | 405
573.46 K, 11526 kPa, x1 = 0.4031 | 107.2
573.49 K, 10078 kPa, x1 = 0.0494 | 679.2
573.52 K, 11527 kPa, x1 = 0.5144 | 108.7
573.63 K, 11542 kPa, x1 = 0.59 | 111.3
573.67 K, 11523 kPa, x1 = 0.6896 | 113.3
573.72 K, 11537 kPa, x1 = 0.0175 | 704.3
573.74 K, 11532 kPa, x1 = 0.7905 | 115.7
573.74 K, 11535 kPa, x1 = 0.8802 | 118.9
573.75 K, 11533 kPa, x1 = 0.007 | 712.1
573.78 K, 11525 kPa, x1 = 0.0997 | 646.8
573.78 K, 11527 kPa, x1 = 0.1971 | 534.3
573.78 K, 11530 kPa, x1 = 0.1484 | 611.5
573.79 K, 11533 kPa, x1 = 0.0494 | 682.1
574.29 K, 20003 kPa, x1 = 0.0997 | 671.8
574.34 K, 20013 kPa, x1 = 0.3044 | 560.2
574.34 K, 20016 kPa, x1 = 0.6896 | 398.6
574.35 K, 20000 kPa, x1 = 0.0494 | 701.9
574.37 K, 19997 kPa, x1 = 0.1484 | 645.8
574.37 K, 20007 kPa, x1 = 0.59 | 431.4
574.37 K, 20014 kPa, x1 = 0.1971 | 617
574.37 K, 20019 kPa, x1 = 0.4031 | 512.2
574.38 K, 20012 kPa, x1 = 0.7905 | 375.2
574.39 K, 20005 kPa, x1 = 0.5144 | 460.1
574.45 K, 20012 kPa, x1 = 0.8802 | 354.5
588.56 K, 13757 kPa, x1 = 0.3044 | 135.3
588.59 K, 13753 kPa, x1 = 0.5144 | 131.6
588.63 K, 13755 kPa, x1 = 0.4031 | 133
588.68 K, 13752 kPa, x1 = 0.7905 | 137.1
588.69 K, 13759 kPa, x1 = 0.59 | 132.6
588.74 K, 13760 kPa, x1 = 0.6896 | 134.8
588.76 K, 13753 kPa, x1 = 0.1971 | 409.6
588.79 K, 13754 kPa, x1 = 0.8802 | 139.5
588.8 K, 13760 kPa, x1 = 0.1484 | 563.2
588.81 K, 13767 kPa, x1 = 0.007 | 679.9
588.83 K, 13755 kPa, x1 = 0.0997 | 606.6
588.84 K, 13753 kPa, x1 = 0.0175 | 672.4
588.85 K, 13755 kPa, x1 = 0.0494 | 647.6
